Values quoted from earlier work, collected in patent US20180221315A1, “COMBINATION THERAPY USING ACAMPROSATE AND D-CYCLOSERINE” (Confluence Pharmaceuticals, LLC, priority 2015, published 2018).

Legend:
[1] = test system: extinction of conditioned fear, maze tasks, visual recognition memory
[2] = test system: cognitive impairment produced by hippocampal lesions, anticholinergic agents, and early social deprivation; conditions: single dose
[3] = biological target: NR1 NMDA receptor subunit (strychnine-insensitive glycine binding site) (Homo sapiens, UniProt Q05586); conditions: partial agonist at glycine site of NMDA receptor; relative to glycine alone

receptor activation, level of maximum stimulation during exposure to glycine alone [3]: 40-50%
Structure (SMILES): N[C@@H]1CONC1=O [DCS, D-4-amino-3-isoxazolidone]
effect on learning and memory in healthy animals [1]: enhanced extinction of conditioned fear, performance on maze tasks, and visual recognition memory | effect on cognitive impairment in animal models [2]: reversed cognitive impairment
